Reference: US10844023B2 (Washington University, priority 2017, dated 2020)
“Also recorded” adds a separate entry of the source.

Test system: Mfn2 null MEFs
Assay: Mitochondrial elongation (aspect ratio) fusogenicity assay
Assay type: cell-based, mouse
Set-up: % long compare to B: dose or concentration left out as unconfirmed
Conditions: for % long compare to B: mitochondrial elongation relative to Cpd B (B01 = 100), compound overnight as printed (FIG. 48); for % long compare to B / Aspect ratio (MEAN ± SEM): Mfn2 null MEFs; for Aspect ratio (MEAN ± SEM): overnight, treatment with 1 μM compound (footnote); for Fusogenicity Rank: rank order of aspect ratio among 44 soluble library compounds

## CC(Sc1nnc(C2CC2)n1-c1ccccc1)C(=O)Nc1sc2c(c1C#N)CCCCC2 (stereo not shown) [1-G5, N-{3-cyano-4H,5H,6H,7H,8H-cyclohepta[b]thiophen-2-yl}-2-[(5-cyclopropyl-4-phenyl-4H-1,2,4-triazol-3-yl)sulfanyl]propana-mide]
  % long compare to B: 7%

## CCOc1ccccc1NC(=O)CSCc1cc(=O)c2ccc(C)c(C)c2[nH]1 [D01, 2-{[(7,8-dimethyl-4-oxo-1,4-dihydroquinolin-2-yl)methyl]sulfanyl}-N-(2-ethoxyphenyl)acetamide]
  % long compare to B: 9%

## O=C(NCCSCc1ccccc1)NC1CCCC1 [1-H9, 1-[2-(benzylsulfanyl)ethyl]-3-cyclopentylurea]
  % long compare to B: 29%

## Cc1ccc(C(=O)C(C)Sc2nnc3c(=O)n(-c4ccc(C)c(C)c4)ccn23)cc1C (stereo not shown) [D02, 7-(3,4-dimethylphenyl)-3-{[1-(3,4-dimethylphenyl)-1-oxopropan-2-yl]sulfanyl}-7H,8H-[1,2,4]triazolo[4,3-a]pyrazin-8-one]
  % long compare to B: 13%

## Cc1nnc(SCCCNC(=O)c2n[nH]c3c2CN(C)CC3)s1 [E06, 5-methyl-N-{3-[(5-methyl-1,3,4-thiadiazol-2-yl)sulfanyl]propyl}-1H,4H,5H,6H,7H-pyrazolo[4,3-c]pyridine-3-carboxamide]
  % long compare to B: −3%

## Cc1cccc(C)c1NC(=O)CCCSCc1ncc(C(C)C)o1 [drawing 211, N-(2,6-dimethylphenyl)-4-({[5-(propan-2-yl)-1,3-oxazol-2-yl]methyl}sulfanyl)butanamide]
  Aspect ratio (MEAN ± SEM): 3.5 ± 0.1
  Fusogenicity Rank: 25

## COc1ccc(OCc2nnc(SC(C)C(=O)Nc3sc4c(c3C(N)=O)CCC4)n2C)cc1 (stereo not shown) [D8, 2-[2-({5-[(4-methoxyphenoxy)-methyl]-4-methyl-4H-1,2,4-triazol-3-yl}sulfanyl)propana-mido]-4H,5H,6H-cyclopenta[b)thiophene-3-carboxamide]
  % long compare to B: −1%

## Cc1cccc(C)c1NC(=O)CCCSCc1ncc(C(C)C)o1 [B10, N-(2,6-dimethylphenyl)-4-({[5-(propan-2-yl)-1,3-oxazol-2-yl]methyl}sulfanyl)-butanamide]
  % long compare to B: 6%

## CC(Sc1nnc(-c2cccs2)n1C1CC1)C(=O)Nc1sc2c(c1C(N)=O)CCC2 (stereo not shown) [1-C12, 2-(2-{[4-cyclopropyl-5-(thiophen-2-yl)-4H-1,2,4-triazol-3-yl]-sulfanyl}propanamido)-4H,5H,6H-cyclopenta[b]-thiophene-3-carboxamide]
  % long compare to B: 13%

## O=C(CSCCc1ccccn1)Nc1ccc(Cl)c(Cl)c1 [drawing 205, N-(3,4-dichlorophenyl)-2-{[2-(pyridin-2-yl)ethyl]sulfanyl}acetamide]
  Aspect ratio (MEAN ± SEM): 2.8 ± 0.1
  Fusogenicity Rank: 41

## NC(=O)c1c(NC(=O)CSc2nnc(C3CC3)n2-c2ccccc2)sc2c1CCCC2 [1-E5, 2-{2-[(5-cyclopropyl-4-phenyl-4H-1,2,4-triazol-3-yl)sulfanyl]-acetamido}-4,5,6,7-tetrahydro-1-benzothiophene-3-carboxamide]
  % long compare to B: −3%

## COc1ccc2c(c1)C1(SCCN1C(=O)c1ccccc1C)C(=O)N2Cc1cccc(C(F)(F)F)c1 (stereo not shown) [drawing 210, 5-methoxy-3′-(2-methylbenzoyl)-1-{[3-(trifluoromethyl)phenyl]methyl}-1,2-dihydrospiro[indole-3,2′-[1,3]thiazolidine]-2-one]
  Aspect ratio (MEAN ± SEM): 3.5 ± 0.6
  Fusogenicity Rank: 26

## O=C(CSCCc1ccccn1)Nc1ccc(Cl)c(Cl)c1 [C06, N-(3,4-dichlorophenyl)-2-{[2-(pyridin-2-yl)ethyl]sulfanyl}-acetamide]
  % long compare to B: −8%

## Cc1cccc(NC(=O)CSCC(=O)N(Cc2ccc(N(C)C)cc2)C(C)C)c1 [N-{[4-(dimethylamino)phenyl]methyl}-2-({[(3-methylphenyl)carbamoyl]methyl}sulfanyl)-N-(propan-2-yl)acetamide]
  Aspect ratio (MEAN ± SEM): 4.6 ± 0.2
  Fusogenicity Rank: 12

## NC(=O)c1c(NC(=O)CSc2ccccc2)sc2c1CCC2 [B2, 2-[2-(phenylsulfanyl)acetamido]-4H,5H,6H-cyclopenta[b]thiophene-3-carboxamide]
  % long compare to B: 12%

## O=C1CC(SCCc2nc3ccccc3[nH]2)C(=O)N1c1cccc(F)c1 (stereo not shown) [D9, 3-{[2-(1H-1,3-benzodiazol-2-yl)ethyl]sulfanyl}-1-(3-fluorophenyl)pyrro-lidine-2,5-dione]
Mitochondrial elongation / fusion
  Fusogenic activity: failed validation in the secondary screen; also recorded: showed no true fusogenic activity

## CCn1c(SCC(=O)Nc2sc3c(c2C(N)=O)CCC(C)C3)nnc1C1CC1 (stereo not shown) [1-D11, 2-{2-[(5-cyclopropyl-4-ethyl-4H-1,2,4-triazol-3-yl)sulfanyl]acetamido}-6-methyl-4,5,6,7-tetrahydro-1-benzothiophene-3-carboxamide]
  % long compare to B: 6%

## NC(=O)c1c(NC(=O)CSc2nnc(-c3ccccc3)n2-c2ccccc2)sc2c1CCCC2 [1-G2, 2-{2-[(diphenyl-4H-1,2,4-triazol-3-yl)sulfanyl]acetamido}-4,5,6,7-tetrahydro-1-benzothiophene-3-carboxamide]
  % long compare to B: 20%

## CC(Sc1nnc2n1CCCCC2)C(=O)Nc1sc2c(c1C(N)=O)CCC2 (stereo not shown) [1-D12, 2-(2-{5H,6H,7H,8H,9H-[1,2,4]triazolo[4,3-a]azepin-3-ylsulfanyl}propanamido)-4H,5H,6H-cyclopenta[b]-thiophene-3-carboxamide]
  % long compare to B: 18%

## Cc1ccc(C(C)C)c(OCCCSCc2nc3ccccc3[nH]2)c1 [C09, 2-[({3-[5-methyl-2-(propan-2-yl)phenoxy]propyl}-sulfanyl)methyl]-1H-1,3-benzodiazole]
  % long compare to B: −5%

## CC(Sc1nnc(-c2c[nH]c3ccccc23)n1C1CC1)C(=O)Nc1sc2c(c1C(N)=O)CCC2 (stereo not shown) [1-F8, 2-(2-{[4-cyclopropyl-5-(1H-indol-3-yl)-4H-1,2,4-triazol-3-yl]sulfanyl}propanamido)-4H,5H,6H-cyclopenta[b]-thiophene-3-carboxamide]
  % long compare to B: 2%

## Cc1nnc(SCC(=O)Nc2sc3c(c2C(N)=O)CCC3)n1C [2-A5, 2-{2-[(dimethyl-4H-1,2,4-triazol-3-yl)sulfanyl]acetamido}-4H,5H,6H-cyclopenta[b]thio-phene-3-carboxamide]
  % long compare to B: 2%

## CC(Sc1nnc(C2CC2)n1Cc1ccccc1)C(=O)Nc1sccc1C(N)=O (stereo not shown) [B4, 2-{2-[(4-benzyl-5-cyclopropyl-4H-1,2,4-triazol-3-yl)sulfanyl]propanamido}thiophene-3-carboxamide]
  % long compare to B: 4%

## CC(C)(C)NC(=O)NC(=O)COC(=O)CSCc1nc2scc(-c3ccccc3)c2c(=O)[nH]1 [B07, 2-[(tert-butylcarbamoyl)amino]-2-oxoethyl 2-[({4-oxo-5-phenyl-3H,4H-thieno[2,3-d]pyrimidin-2-yl}methyl)sulfanyl] acetate]
  % long compare to B: 64%

## Cc1nc[nH]c1CSCCNC(=O)C1CCN(C(=O)C2CCC2)CC1 [drawing 220, 1-cyclobutanecarbonyl-N-(2-{[(4-methyl-1H-imidazol-5-yl)methyl]sulfanyl}ethyl)piperidine-4-carboxamide]
  Aspect ratio (MEAN ± SEM): 2.9 ± 0.5
  Fusogenicity Rank: 40

## CCn1c(SCC(=O)Nc2sc3c(c2C(N)=O)CCCC3)nnc1C1CC1 [1-F5, 2-{2-[(5-cyclopropyl-4-ethyl-4H-1,2,4-triazol-3-yl)sulfanyl]acet-amido}-4,5,6,7-tetrahydro-1-benzothiophene-3-carboxamide]
  % long compare to B: −7%

## CC(Sc1nnc(N2CCOCC2)n1Cc1ccccc1)C(=O)Nc1ccc2c(c1)OCO2 (stereo not shown) [A01, N-(2H-1,3-benzodioxol-5-yl)-2-{[4-benzyl-5-(morpholin-4-yl)-4H-1,2,4-triazol-3-yl]sulfanyl)propana-mide]
  % long compare to B: −14%

## Cc1ccc(N2C[C@@H]3CC[C@H](C2)N(Cc2ccccn2)C3=O)nn1 [drawing 245, (1S,5R)-3-(6-methylpyridazin-3-yl)-6-[(pyridin-2-yl)methyl]-3,6-diazabicyclo[3.2.2]nonan-7-one]
  Aspect ratio (MEAN ± SEM): 3.0 ± 0.4
  Fusogenicity Rank: 36

## CC(Sc1nnc(Cc2cccs2)n1C)C(=O)Nc1sc2c(c1C(N)=O)CCC2 (stereo not shown) [1-B7, 2-[2-({4-methyl-5-[(thiophen-2-yl)methyl]-4H-1,2,4-triazol-3-yl}sulfanyl)propanamido]-4H,5H,6H-cyclopenta[b]thio-phene-3-carboxamide]
  % long compare to B: 41%

## CCC(C)NC(=O)c1ccccc1NC(=O)C(C)Sc1ccc(C)cc1 (stereo not shown) [drawing 236, N-(butan-2-yl)-2-{2-[(4-methylphenyl)sulfanyl]propanamido}benzamide]
  Aspect ratio (MEAN ± SEM): 3.3 ± 0.4
  Fusogenicity Rank: 29

## O=C(CSCC(=O)N1CCCc2ccccc21)Nc1ccccc1 [drawing 249, 2-{[2-oxo-2-(1,2,3,4-tetrahydroquinolin-1-yl)ethyl]sulfanyl}-N-phenylacetamide]
  Aspect ratio (MEAN ± SEM): 2.4 ± 0.4
  Fusogenicity Rank: 44

## CC(Sc1nnc(N2CCOCC2)n1Cc1ccccc1)C(=O)Nc1ccc2c(c1)OCCO2 (stereo not shown) [drawing 226, 2-{[4-benzyl-5-(morpholin-4-yl)-4H-1,2,4-triazol-3-yl]sulfanyl}-N-(2,3-dihydro-1,4-benzodioxin-6-yl)propanamide]
  Aspect ratio (MEAN ± SEM): 6.0 ± 0.1
  Fusogenicity Rank: 6

## Cc1cccc(NC(=O)NCCCCc2ccccc2)c1 [A3, 3-(3-methylphenyl)-1-(4-phenylbutyl)urea]
  % long compare to B: 32%

## CC1CCCCC1NC(=O)NCCSCc1ccccc1 (stereo not shown) [drawing 224, 1-[2-(benzylsulfanyl)ethyl]-3-(2-methylcyclohexyl)urea]
  Aspect ratio (MEAN ± SEM): 6.8 ± 0.6
  Fusogenicity Rank: 4

## CC(C)C1=CC2C(=O)NC(CSCC(=O)NCc3ccccn3)=NC2S1 (stereo not shown) [drawing 204, 2-({[4-oxo-6-(propan-2-yl)-3H,4H,4aH,7aH-thieno[2,3-d]pyrimidin-2-yl]methyl}sulfanyl)-N-[(pyridin-2-yl)methyl]acetamide]
  Aspect ratio (MEAN ± SEM): 3.8 ± 0.6
  Fusogenicity Rank: 21
